Reference: patent US11123337B2, “4-methylsulfonyl-substituted piperidine urea compounds” (MYOKARDIA, INC., priority 2015, dated 2021)

biological target: bovine cardiac myosin (Bos taurus, UniProt Q9BE39); test: Myosin activation assay (PK/LDH-coupled ATPase, bovine cardiac myofibrils); assay type: biochemical; details: AC20 = concentration at which total response is increased by twenty percent
How it was run: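 Values are the concentrations raising the ATPase rate by 20% or 50% over DMSO, from 10-point dose responses fitted with four parameters. Rate is NADH loss at 340 nm via PK/LDH coupling, read 15 min at room temperature, in pH 6.8 PIPES with 50 μM ATP. Bovine cardiac myofibrils were held at pCa ~6 or pCa 10.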

Chain of bovine cardiac myosin (Q9BE39 whole entry): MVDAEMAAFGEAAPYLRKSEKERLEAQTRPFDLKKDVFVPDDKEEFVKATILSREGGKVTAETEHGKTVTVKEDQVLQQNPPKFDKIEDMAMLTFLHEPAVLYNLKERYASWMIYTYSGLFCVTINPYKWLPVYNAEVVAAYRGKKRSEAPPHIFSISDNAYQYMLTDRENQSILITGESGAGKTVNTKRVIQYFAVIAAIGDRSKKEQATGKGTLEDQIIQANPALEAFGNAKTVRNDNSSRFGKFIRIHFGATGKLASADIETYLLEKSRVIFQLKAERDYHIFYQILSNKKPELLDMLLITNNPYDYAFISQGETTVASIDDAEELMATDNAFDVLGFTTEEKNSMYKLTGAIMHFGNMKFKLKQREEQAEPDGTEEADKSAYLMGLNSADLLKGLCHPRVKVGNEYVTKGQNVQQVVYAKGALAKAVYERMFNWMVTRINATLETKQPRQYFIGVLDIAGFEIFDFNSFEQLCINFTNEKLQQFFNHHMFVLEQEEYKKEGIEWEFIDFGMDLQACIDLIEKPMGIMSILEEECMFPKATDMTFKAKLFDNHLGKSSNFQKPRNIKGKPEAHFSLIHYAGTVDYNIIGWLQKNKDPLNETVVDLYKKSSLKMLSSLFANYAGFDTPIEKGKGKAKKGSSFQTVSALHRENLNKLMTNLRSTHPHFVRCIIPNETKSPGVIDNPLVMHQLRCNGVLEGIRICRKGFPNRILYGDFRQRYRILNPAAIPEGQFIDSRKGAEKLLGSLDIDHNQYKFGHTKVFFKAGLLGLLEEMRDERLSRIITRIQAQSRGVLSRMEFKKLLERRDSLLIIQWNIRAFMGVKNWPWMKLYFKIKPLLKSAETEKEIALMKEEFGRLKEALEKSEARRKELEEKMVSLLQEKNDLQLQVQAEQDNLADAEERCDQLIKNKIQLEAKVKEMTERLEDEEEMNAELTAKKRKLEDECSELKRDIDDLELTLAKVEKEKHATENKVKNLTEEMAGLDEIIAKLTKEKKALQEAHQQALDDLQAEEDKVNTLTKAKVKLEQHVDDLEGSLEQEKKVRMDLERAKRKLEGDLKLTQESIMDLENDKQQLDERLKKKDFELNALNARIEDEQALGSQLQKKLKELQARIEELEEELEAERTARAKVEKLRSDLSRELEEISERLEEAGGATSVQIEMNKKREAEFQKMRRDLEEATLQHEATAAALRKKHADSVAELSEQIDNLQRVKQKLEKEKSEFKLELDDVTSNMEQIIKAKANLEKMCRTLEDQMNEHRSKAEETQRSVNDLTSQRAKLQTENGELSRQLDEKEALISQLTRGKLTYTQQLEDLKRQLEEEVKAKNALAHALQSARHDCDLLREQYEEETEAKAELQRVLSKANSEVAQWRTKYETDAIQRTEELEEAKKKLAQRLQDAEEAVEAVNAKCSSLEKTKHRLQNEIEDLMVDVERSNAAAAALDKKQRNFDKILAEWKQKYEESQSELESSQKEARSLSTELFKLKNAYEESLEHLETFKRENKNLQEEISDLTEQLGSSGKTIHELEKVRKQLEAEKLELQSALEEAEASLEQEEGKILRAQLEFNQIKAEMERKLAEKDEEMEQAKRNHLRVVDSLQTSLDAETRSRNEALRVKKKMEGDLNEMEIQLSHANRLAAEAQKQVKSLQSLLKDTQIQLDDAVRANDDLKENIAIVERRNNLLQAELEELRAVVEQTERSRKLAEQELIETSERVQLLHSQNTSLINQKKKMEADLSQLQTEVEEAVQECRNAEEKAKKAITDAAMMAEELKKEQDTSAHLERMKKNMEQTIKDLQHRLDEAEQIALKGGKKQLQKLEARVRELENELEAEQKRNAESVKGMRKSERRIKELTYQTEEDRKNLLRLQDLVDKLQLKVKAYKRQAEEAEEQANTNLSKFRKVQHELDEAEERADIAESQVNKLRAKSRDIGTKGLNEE
Chain of bovine cardiac myosin (P85100 whole entry partner): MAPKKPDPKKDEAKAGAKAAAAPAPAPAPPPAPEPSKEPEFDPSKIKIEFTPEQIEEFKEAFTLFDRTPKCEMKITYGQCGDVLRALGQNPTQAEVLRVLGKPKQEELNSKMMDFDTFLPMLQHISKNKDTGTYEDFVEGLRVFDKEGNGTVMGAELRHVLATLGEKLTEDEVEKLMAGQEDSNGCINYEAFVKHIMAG
Chain of bovine cardiac myosin (Q3SZE5 whole entry partner): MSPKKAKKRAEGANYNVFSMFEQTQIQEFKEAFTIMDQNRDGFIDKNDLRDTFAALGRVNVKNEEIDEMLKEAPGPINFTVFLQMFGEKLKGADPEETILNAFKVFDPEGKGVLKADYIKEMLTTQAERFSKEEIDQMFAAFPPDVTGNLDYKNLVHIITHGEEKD

SMILES	Myosin Activation (AC20)
CC(C)(C1CCN(C(=O)Nc2ccnnc2)CC1)S(=O)(=O)c1ccc2ccnn2c1 [Compound 189, 4-(2-(pyrazolo[1,5-a]pyridin-6-ylsulfonyl)propan-2-yl)-N-(pyridazin-4-yl)piperidine-1-carboxamide]	+++ (+++ represents myosin activation value AC20 < 2 μM)
Cc1ccc(NC(=O)N2CCC(C(C)(F)S(=O)(=O)c3cccc(F)c3)CC2)cn1 (centres unmarked) [Compound 295, 4-(1-fluoro-1-((3-fluorophenyl)sulfonyl)ethyl)-N-(6-methylpyridin-3-yl)piperidine-1-carboxamide]	+ (+ represents myosin activation value AC20 > 5 μM)
O=C(Nc1ccnnc1)N1CCC(F)(C2(S(=O)(=O)c3cccc(F)c3)CCC2)CC1 [Compound 166, 4-fluoro-4-(1-((3-fluorophenyl)sulfonyl)cyclobutyl)-N-(pyridazin-4-yl)piperidine-1-carboxamide]	++ (++ represents myosin activation value AC20 from 2 μM-5 μM)
Cn1cc(S(=O)(=O)C(F)(F)C2CCN(C(=O)Nc3ccnc(F)c3)CC2)c(C(F)F)n1 [Compound 79, 4-(((3-(difluoromethyl)-1-methyl-1H-pyrazol-4-yl)sulfonyl)difluoromethyl)-N-(2-fluoropyridin-4-yl)piperidine-1-carboxamide]	+ (+ represents myosin activation value AC20 > 5 μM)
Cc1ccc(NC(=O)N2CCC(C(C)(C)S(=O)(=O)c3cn(C)nc3C(F)F)CC2)cn1 [Compound 155, 4-(2-((3-(difluoromethyl)-1-methyl-1H-pyrazol-4-yl)sulfonyl)propan-2-yl)-N-(6-methylpyridin-3-yl)piperidine-1-carboxamide]	++ (++ represents myosin activation value AC20 from 2 μM-5 μM)
Cn1cc(S(=O)(=O)[C@@](C)(F)C2CCN(C(=O)Nc3cn[nH]c3)CC2)c(C(F)F)n1 [Compound 289, (R)-4-(1-((3-(difluoromethyl)-1-methyl-1H-pyrazol-4-yl)sulfonyl)-1-fluoroethyl)-N-(1H-pyrazol-4-yl)piperidine-1-carboxamide]	++ (++ represents myosin activation value AC20 from 2 μM-5 μM)
C[C@](F)(C1CCN(C(=O)Nc2ccon2)CC1)S(=O)(=O)c1cccc(F)c1 [Compound 284, (R)-4-(1-fluoro-1-((3-fluorophenyl)sulfonyl)ethyl)-N-(isoxazol-3-yl)piperidine-1-carboxamide]	+++ (+++ represents myosin activation value AC20 < 2 μM)
Cc1cnc(NC(=O)N2CCC(C(C)(C)S(=O)(=O)c3cccc(F)c3)CC2)cn1 [Compound 125, 4-(2-((3-fluorophenyl)sulfonyl)propan-2-yl)-N-(5-methylpyrazin-2-yl)piperidine-1-carboxamide]	+ (+ represents myosin activation value AC20 > 5 μM)
Cn1cc(S(=O)(=O)C(C)(C)C2CCN(C(=O)Nc3ccnnc3)CC2)c(C(F)F)n1 [Compound 168, 4-(2-((3-(difluoromethyl)-1-methyl-1H-pyrazol-4-yl)sulfonyl)propan-2-yl)-N-(pyridazin-4-yl)piperidine-1-carboxamide]	+++ (+++ represents myosin activation value AC20 < 2 μM)
CC(C)(C1CCN(C(=O)Nc2ccncc2F)CC1)S(=O)(=O)c1cccc(F)c1 [Compound 177, 4-(2-((3-fluorophenyl)sulfonyl)propan-2-yl)-N-(3-fluoropyridin-4-yl)piperidine-1-carboxamide]	+ (+ represents myosin activation value AC20 > 5 μM)
CC(F)(C1CCN(C(=O)Nc2ccon2)CC1)S(=O)(=O)c1ccc(C#N)cc1 (centres unmarked) [Compound 283, 4-(1-((4-cyanophenyl)sulfonyl)-1-fluoroethyl)-N-(isoxazol-3-yl)piperidine-1-carboxamide]	++ (++ represents myosin activation value AC20 from 2 μM-5 μM)
O=C(Nc1ccncc1)N1CCC(C2(S(=O)(=O)c3ccc(OC(F)(F)F)cc3)CC2)CC1 [Compound 206, N-(pyridin-4-yl)-4-(1-((4-(trifluoromethoxy)phenyl)sulfonyl)cyclopropyl)piperidine-1-carboxamide]	+++ (+++ represents myosin activation value AC20 < 2 μM)
Cn1cc(S(=O)(=O)C(C)(C)C2CCN(C(=O)Nc3cccnc3)CC2)c(C(F)F)n1 [Compound 118, 4-(2-((3-(difluoromethyl)-1-methyl-1H-pyrazol-4-yl)sulfonyl)propan-2-yl)-N-(pyridin-3-yl)piperidine-1-carboxamide]	+++ (+++ represents myosin activation value AC20 < 2 μM)
C[C@](F)(C1CCN(C(=O)Nc2ccon2)CC1)S(=O)(=O)c1ccc(OC(F)F)nc1 [Compound 312, (R)-4-(1-((6-(difluoromethoxy)pyridin-3-yl)sulfonyl)-1-fluoroethyl)-N-(isoxazol-3-yl)piperidine-1-carboxamide]	+++ (+++ represents myosin activation value AC20 < 2 μM)
Cn1ccc(NC(=O)N2CCC(C(C)(C)S(=O)(=O)c3cccc(F)c3)CC2)n1 [Compound 138, 4-(2-((3-fluorophenyl)sulfonyl)propan-2-yl)-N-(1-methyl-1H-pyrazol-3-yl)piperidine-1-carboxamide]	+ (+ represents myosin activation value AC20 > 5 μM)
Cn1nc(C(F)(F)F)cc1S(=O)(=O)C(C)(C)C1CCN(C(=O)Nc2ccc(F)nc2)CC1 [Compound 123, N-(6-fluoropyridin-3-yl)-4-(2-((1-methyl-3-(trifluoromethyl)-1H-pyrazol-5-yl)sulfonyl)propan-2-yl)piperidine-1-carboxamide]	++ (++ represents myosin activation value AC20 from 2 μM-5 μM)
Cc1ccccc1S(=O)(=O)C(C)(C)C1CCN(C(=O)Nc2ccns2)CC1 [Compound 213, N-(isothiazol-5-yl)-4-(2-(o-tolylsulfonyl)propan-2-yl)piperidine-1-carboxamide]	+++ (+++ represents myosin activation value AC20 < 2 μM)
CC(C)(C1CCN(C(=O)Nc2nnco2)CC1)S(=O)(=O)c1cccc(F)c1 [Compound 153, 4-(2-((3-fluorophenyl)sulfonyl)propan-2-yl)-N-(1,3,4-oxadiazol-2-yl)piperidine-1-carboxamide]	+ (+ represents myosin activation value AC20 > 5 μM)
C[C@H](O)c1cc(NC(=O)N2CCC(C(F)(F)S(=O)(=O)c3cn(C)nc3C(F)F)CC2)ccn1 [Compound 99, (S)-4-(((3-(difluoromethyl)-1-methyl-1H-pyrazol-4-yl)sulfonyl)difluoromethyl)-N-(2-(1-hydroxyethyl)pyridin-4-yl)piperidine-1-carboxamide]	+ (+ represents myosin activation value AC20 > 5 μM)
Cc1ccccc1S(=O)(=O)C(C)(C)C1CCN(C(=O)Nc2ccncc2)CC1 [Compound 212, N-(pyridin-4-yl)-4-(2-(o-tolylsulfonyl)propan-2-yl)piperidine-1-carboxamide]	+++ (+++ represents myosin activation value AC20 < 2 μM)
Cn1cc(S(=O)(=O)C(C)(F)C2CCN(C(=O)Nc3ccnc(F)c3)CC2)c(C(F)(F)F)n1 (centres unmarked) [Compound 245, 4-(1-fluoro-1-((1-methyl-3-(trifluoromethyl)-1H-pyrazol-4-yl)sulfonyl)ethyl)-N-(2-fluoropyridin-4-yl)piperidine-1-carboxamide]	++ (++ represents myosin activation value AC20 from 2 μM-5 μM)
CC(C1CCN(C(=O)Nc2ccncc2)CC1)S(=O)(=O)c1cccc(F)c1 (centres unmarked) [Compound 31, 4-(1-((3-fluorophenyl)sulfonyl)ethyl)-N-(pyridin-4-yl)piperidine-1-carboxamide]	++ (++ represents myosin activation value AC20 from 2 μM-5 μM)
CC(C)(C1CCN(C(=O)Nc2ccncc2)CC1)S(=O)(=O)c1ccccc1C#N [Compound 209, 4-(2-((2-cyanophenyl)sulfonyl)propan-2-yl)-N-(pyridin-4-yl)piperidine-1-carboxamide]	++ (++ represents myosin activation value AC20 from 2 μM-5 μM)
COc1ccccc1S(=O)(=O)C(C)(C)C1CCN(C(=O)Nc2ccns2)CC1 [Compound 215, N-(isothiazol-5-yl)-4-(2-((2-methoxyphenyl)sulfonyl)propan-2-yl)piperidine-1-carboxamide]	++ (++ represents myosin activation value AC20 from 2 μM-5 μM)
CC(F)(C1CCN(C(=O)Nc2ccnnc2)CC1)S(=O)(=O)c1ccc(C(F)(F)F)cc1 (centres unmarked) [Compound 266, 4-(1-fluoro-1-((4-(trifluoromethyl)phenyl)sulfonyl)ethyl)-N-(pyridazin-4-yl)piperidine-1-carboxamide]	++ (++ represents myosin activation value AC20 from 2 μM-5 μM)
Cc1ccc(NC(=O)N2CCC(C(C)(F)S(=O)(=O)c3ccnn3C)CC2)cn1 (centres unmarked) [Compound 225, 4-(1-fluoro-1-((1-methyl-1H-pyrazol-5-yl)sulfonyl)ethyl)-N-(6-methylpyridin-3-yl)piperidine-1-carboxamide]	++ (++ represents myosin activation value AC20 from 2 μM-5 μM)
O=C(Nc1ccnnc1)N1CCC(C(F)(F)S(=O)(=O)c2ccc(-n3cncn3)cc2)CC1 [Compound 64, 4-(((4-(1H-1,2,4-triazol-1-yl)phenyl)sulfonyl)difluoromethyl)-N-(pyridazin-4-yl)piperidine-1-carboxamide]	++ (++ represents myosin activation value AC20 from 2 μM-5 μM)
CC(C)(C1CCN(C(=O)Nc2cc[nH]n2)CC1)S(=O)(=O)c1cccc(F)c1 [Compound 147, 4-(2-((3-fluorophenyl)sulfonyl)propan-2-yl)-N-(1H-pyrazol-3-yl)piperidine-1-carboxamide]	+ (+ represents myosin activation value AC20 > 5 μM)
Cn1nc(C(F)(F)F)cc1S(=O)(=O)C(C)(C)C1CCN(C(=O)Nc2ccon2)CC1 [Compound 126, N-(isoxazol-3-yl)-4-(2-((1-methyl-3-(trifluoromethyl)-1H-pyrazol-5-yl)sulfonyl)propan-2-yl)piperidine-1-carboxamide]	++ (++ represents myosin activation value AC20 from 2 μM-5 μM)
